Test results from patent publication US9617596B2, “Biomarkers predictive for clinical response for glatiramer acetate” (TEVA PHARMACEUTICAL INDUSTRIES, LTD., priority 2012, dated 2017).

What was measured:
RRMS subjects [1] = settings: over 9 months of treatment, 20 mg group (17 lesions under placebo); cited from earlier work
[2] = daily standard dose of 20 mg; cited from earlier work
RRMS subjects [3] = settings: largest controlled study, cited from earlier work
ERAP2 = ERAP2 expression in PBMC of RRMS patients over the course of GA treatment (exon arrays, PCR); format: in vivo, human; settings: baseline, 3, 12 and 24 months of treatment (FIG. 4)
Method: Relapsing-remitting multiple sclerosis patients were treated with GA. Whole blood was taken from patients at four time points including baseline (baseline, month 3, month 12 and month 24). Peripheral blood mononuclear cells (PBMCs) were cryopreserved and RNA was isolated for gene expression analysis (FIG. 3).
Gene expression analysis was performed using Affymetrix Human Exon 1.0 ST expression arrays. Preprocessing was performed with an integrated three-step approach: background correction, normalization […] implemented in the Affymetrix Expression Console. Batch effects normalization was performed with the removeBatchEffect function from limma R package.
PCR analysis was performed in order to validate the expression of ERAP2 in Responder populations as compared to Non-Responders and Healthy Controls.

Q: For Glatiramer acetate [GA], which “median cumulative number of Gd-enhancing lesions” value (RRMS subjects [1]) is on record?
A: The value was 11 lesions.

Q: And the tolerability [2]?
A: Its tolerability is “generally well tolerated”.

Q: And the relapse rate reduced (RRMS subjects [3]; GA 20 mg vs placebo)?
A: The relapse rate reduced was 32%.

Q: What about the relapse rate (RRMS subjects [3]; under GA 20 mg (1.98 under placebo)) of the same substance?
A: Its relapse rate is 1.34.

Q: What about the “ERAP2 expression change by treatment” value (ERAP2) of the same substance?
A: The value was “not modified”.
